Test results reported in ChEMBL document CHEMBL1147178, “Novel thiol-based TACE inhibitors: rational design, synthesis, and SAR of thiol-containing aryl sulfonamides” (Bioorg Med Chem Lett, 2007).

What was measured:
[1] = biological target: Disintegrin and metalloproteinase domain-containing protein 17 (Homo sapiens, UniProt P78536); assay: Inhibition of TNF-alpha converting enzyme
[2] = biological target: 72 kDa type IV collagenase (Homo sapiens, UniProt P08253); assay: Inhibition of MMP2
Matrilysin = biological target: T1, Matrilysin (Homo sapiens, UniProt P09237); assay: Inhibition of MMP7
T1 sequence (P09237 whole entry): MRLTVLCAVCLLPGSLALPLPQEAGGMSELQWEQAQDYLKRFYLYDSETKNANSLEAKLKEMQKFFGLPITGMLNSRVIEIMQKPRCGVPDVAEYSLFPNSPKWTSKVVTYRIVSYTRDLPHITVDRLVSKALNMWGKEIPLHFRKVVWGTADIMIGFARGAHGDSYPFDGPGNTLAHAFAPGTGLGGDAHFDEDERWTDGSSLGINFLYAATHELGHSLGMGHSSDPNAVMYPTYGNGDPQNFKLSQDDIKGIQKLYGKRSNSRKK

Neutrophil collagenase = Neutrophil collagenase (Homo sapiens, UniProt P22894); assay: Inhibition of MMP8
[3] = biological target: Matrix metalloproteinase-9 (Homo sapiens, UniProt P14780); assay: Inhibition of MMP9
Collagenase 3 = Collagenase 3 (Homo sapiens, UniProt P45452); assay: Inhibition of MMP13

Sequence of 72 kDa type IV collagenase (P08253 whole entry): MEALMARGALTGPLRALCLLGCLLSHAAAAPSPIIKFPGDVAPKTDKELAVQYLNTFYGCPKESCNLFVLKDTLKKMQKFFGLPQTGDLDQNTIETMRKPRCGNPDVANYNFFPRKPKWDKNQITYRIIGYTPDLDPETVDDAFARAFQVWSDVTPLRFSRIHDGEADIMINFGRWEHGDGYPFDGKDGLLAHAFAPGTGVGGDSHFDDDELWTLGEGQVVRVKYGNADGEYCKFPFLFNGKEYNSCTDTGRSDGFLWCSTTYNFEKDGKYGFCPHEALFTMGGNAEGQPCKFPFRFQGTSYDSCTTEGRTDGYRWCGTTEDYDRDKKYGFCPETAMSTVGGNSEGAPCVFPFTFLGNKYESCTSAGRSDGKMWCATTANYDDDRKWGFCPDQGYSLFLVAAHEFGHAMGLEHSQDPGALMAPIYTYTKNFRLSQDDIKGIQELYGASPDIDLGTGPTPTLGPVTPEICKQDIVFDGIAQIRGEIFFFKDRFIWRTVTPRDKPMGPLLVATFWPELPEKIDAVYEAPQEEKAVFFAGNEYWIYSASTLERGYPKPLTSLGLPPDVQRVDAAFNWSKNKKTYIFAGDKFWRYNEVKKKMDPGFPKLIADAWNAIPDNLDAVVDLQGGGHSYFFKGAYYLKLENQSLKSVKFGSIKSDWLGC
Sequence of Disintegrin and metalloproteinase domain-containing protein 17 (P78536 whole entry, the tested form may be a part): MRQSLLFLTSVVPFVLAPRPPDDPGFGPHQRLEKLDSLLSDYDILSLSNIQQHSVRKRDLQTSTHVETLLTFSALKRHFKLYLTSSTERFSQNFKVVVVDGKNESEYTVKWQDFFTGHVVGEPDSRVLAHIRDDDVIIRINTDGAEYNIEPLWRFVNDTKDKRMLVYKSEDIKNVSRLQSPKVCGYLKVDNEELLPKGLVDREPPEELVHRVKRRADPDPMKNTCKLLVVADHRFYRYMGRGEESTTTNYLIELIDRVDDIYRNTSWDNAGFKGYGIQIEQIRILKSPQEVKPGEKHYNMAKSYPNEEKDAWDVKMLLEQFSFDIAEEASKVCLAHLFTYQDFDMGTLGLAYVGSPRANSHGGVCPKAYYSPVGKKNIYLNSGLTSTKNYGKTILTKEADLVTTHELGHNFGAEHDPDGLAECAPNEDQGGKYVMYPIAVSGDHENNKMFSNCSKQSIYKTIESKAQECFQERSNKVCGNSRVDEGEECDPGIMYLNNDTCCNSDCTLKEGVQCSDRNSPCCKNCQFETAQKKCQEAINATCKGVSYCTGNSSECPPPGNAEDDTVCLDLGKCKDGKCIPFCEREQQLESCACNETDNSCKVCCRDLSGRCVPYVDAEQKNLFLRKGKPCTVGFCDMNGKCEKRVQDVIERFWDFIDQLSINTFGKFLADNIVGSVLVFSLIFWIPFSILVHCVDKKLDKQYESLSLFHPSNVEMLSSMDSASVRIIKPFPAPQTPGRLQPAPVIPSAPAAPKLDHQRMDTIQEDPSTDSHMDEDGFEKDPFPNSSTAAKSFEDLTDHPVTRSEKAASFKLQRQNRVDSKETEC
Sequence of Neutrophil collagenase (P22894 whole entry): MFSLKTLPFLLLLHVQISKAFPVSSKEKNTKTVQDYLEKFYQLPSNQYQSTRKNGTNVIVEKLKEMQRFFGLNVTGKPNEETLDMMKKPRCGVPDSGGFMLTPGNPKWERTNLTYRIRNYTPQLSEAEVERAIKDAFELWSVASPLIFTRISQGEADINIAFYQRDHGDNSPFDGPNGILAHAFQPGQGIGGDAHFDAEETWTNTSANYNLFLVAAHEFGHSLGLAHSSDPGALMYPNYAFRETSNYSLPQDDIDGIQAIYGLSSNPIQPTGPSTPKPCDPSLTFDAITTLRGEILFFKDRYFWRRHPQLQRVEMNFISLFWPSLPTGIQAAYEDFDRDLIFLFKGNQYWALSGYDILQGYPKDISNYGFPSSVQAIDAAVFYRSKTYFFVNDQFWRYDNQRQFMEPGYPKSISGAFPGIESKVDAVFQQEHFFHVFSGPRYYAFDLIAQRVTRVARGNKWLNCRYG
Sequence of Matrix metalloproteinase-9 (P14780 whole entry, looked up): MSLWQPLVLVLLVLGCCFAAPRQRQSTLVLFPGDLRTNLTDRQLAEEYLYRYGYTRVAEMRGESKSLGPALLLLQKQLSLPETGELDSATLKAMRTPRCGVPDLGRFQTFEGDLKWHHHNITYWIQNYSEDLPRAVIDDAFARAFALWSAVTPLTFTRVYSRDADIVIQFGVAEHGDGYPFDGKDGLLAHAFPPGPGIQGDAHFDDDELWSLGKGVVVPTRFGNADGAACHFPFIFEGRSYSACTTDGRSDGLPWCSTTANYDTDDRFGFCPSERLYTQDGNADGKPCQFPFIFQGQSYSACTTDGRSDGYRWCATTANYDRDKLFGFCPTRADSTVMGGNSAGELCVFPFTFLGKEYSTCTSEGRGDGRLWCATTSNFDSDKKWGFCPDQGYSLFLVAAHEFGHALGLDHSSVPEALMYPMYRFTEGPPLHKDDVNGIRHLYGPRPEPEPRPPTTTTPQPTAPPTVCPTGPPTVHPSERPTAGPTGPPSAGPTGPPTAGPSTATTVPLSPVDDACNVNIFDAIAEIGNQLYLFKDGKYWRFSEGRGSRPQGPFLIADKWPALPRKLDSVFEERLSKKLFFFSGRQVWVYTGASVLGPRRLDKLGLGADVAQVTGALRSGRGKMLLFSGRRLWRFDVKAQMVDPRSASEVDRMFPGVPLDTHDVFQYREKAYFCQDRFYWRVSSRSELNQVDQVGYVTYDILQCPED

SMILES	Ki [1] [nM]	Ki [2] [nM]	Ki (Matrilysin) [nM]	Ki (Neutrophil collagenase) [nM]	Ki [3] [nM]	Ki (Collagenase 3) [nM]
CC#CCOc1ccc(S(=O)(=O)N(C)C[C@H](C)S)cc1	27	–	–	–	–	–
CC#CCNc1ccc(S(=O)(=O)N2CC(S)C2)cc1	11	–	–	–	–	–
CC#CCNc1ccc(S(=O)(=O)N2CC[C@@H](S)C2)cc1	5	–	–	–	–	–
CC#CCOc1ccc(S(=O)(=O)N2CC(S)C2)cc1	13	–	–	–	–	–
CC#CCOc1ccc(S(=O)(=O)N(C)CCS)cc1	52	5700	33000	1300	200	2000
CC#CCOc1ccc(S(=O)(=O)N(C)CC(=O)NO)cc1	10	27	3400	–	–	17
CC#CCOc1ccc(S(=O)(=O)N2CC[C@@H](S)C2)cc1	–	5000	> 6000	–	–	1200
O=S(=O)(c1ccc(OCC#CCN2CCCCC2)cc1)N1CC[C@@H](S)C1	530	–	–	–	–	–
CN1CCN(CC#CCOc2ccc(S(=O)(=O)N3CC[C@@H](S)C3)cc2)CC1	3400	–	–	–	–	–
CC#CCOc1ccc(S(=O)(=O)N2CCCC(S)C2)cc1 (racemic)	55	> 3000	> 3000	–	–	700
